Drawing on patent US20140296212A1, “SUBSTITUTED PHENOXYPROPYLCYCLOAMINE DERIVATIVES AS HISTAMINE-3 (H3) RECEPTOR LIGANDS” (CEPHALON, INC., priority 2009, published 2014), this text covers Ki and melting point for 25 compounds.

Series [1] has as its target T1, rat histamine H3 receptor (Rattus norvegicus, UniProt Q9QYN8).
T1 construct: encoding the entire 445-amino-acid rat histamine H3 receptor; expressed in transfected cells
Nature of the series: Rat H3 radioligand binding ([3H]-N-alpha-methylhistamine, SPA). The settings on record: membranes of CHO-A3 cells expressing rat H3; [3H]-N-alpha-methylhistamine; read-out: Rat H3 Ki. Put shortly: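 Membranes from CHO-A3 cells stably expressing full-length rat H3 receptor (445 aa) incubated with ~1 nM [3H]-N-alpha-methylhistamine and compound (0.01 nM–30 μM) in 50 mM Tris HCl pH 7.4, 5 mM MgCl2, 0.1% BSA, 4 h, room temperature; SPA bead read-out. Non-specific binding defined with 10 μM clobenpropit.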

The target in series [2] is T2, human H3 receptor (Homo sapiens, UniProt Q9Y5N1).
T2 construct: expressed in transfected cells
T2 sequence (Q9Y5N1 whole entry): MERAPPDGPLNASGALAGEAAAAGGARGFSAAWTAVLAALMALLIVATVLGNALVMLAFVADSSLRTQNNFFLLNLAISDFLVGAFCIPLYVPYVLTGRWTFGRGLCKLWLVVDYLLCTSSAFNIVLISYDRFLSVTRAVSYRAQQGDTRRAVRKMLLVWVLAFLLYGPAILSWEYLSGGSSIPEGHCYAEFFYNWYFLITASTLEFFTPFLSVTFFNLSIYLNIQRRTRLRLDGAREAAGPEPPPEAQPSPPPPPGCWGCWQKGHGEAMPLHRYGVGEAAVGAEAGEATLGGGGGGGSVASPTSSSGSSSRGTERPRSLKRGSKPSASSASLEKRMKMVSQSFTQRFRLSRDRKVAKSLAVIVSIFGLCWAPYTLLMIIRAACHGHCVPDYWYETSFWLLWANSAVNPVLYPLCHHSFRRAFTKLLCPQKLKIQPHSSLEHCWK
In words: Human H3 radioligand binding ([3H]-N-alpha-methylhistamine, SPA). The settings on record: membranes of CHO cells expressing human H3. Put shortly:
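Membranes from H3-expressing cells (10 μg protein/well) in 50 mM Tris HCl pH 7.4, 5 mM MgCl2, 0.1% BSA with ~1 nM [3H]-N-alpha-methylhistamine and compound (0.01 nM–30 μM), SPA beads, 4 h, room temperature, dark. Non-specific binding defined with 10 μM clobenpropit; bound radioligand read by scintillation counting.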

T1 sequence (Q9QYN8 whole entry): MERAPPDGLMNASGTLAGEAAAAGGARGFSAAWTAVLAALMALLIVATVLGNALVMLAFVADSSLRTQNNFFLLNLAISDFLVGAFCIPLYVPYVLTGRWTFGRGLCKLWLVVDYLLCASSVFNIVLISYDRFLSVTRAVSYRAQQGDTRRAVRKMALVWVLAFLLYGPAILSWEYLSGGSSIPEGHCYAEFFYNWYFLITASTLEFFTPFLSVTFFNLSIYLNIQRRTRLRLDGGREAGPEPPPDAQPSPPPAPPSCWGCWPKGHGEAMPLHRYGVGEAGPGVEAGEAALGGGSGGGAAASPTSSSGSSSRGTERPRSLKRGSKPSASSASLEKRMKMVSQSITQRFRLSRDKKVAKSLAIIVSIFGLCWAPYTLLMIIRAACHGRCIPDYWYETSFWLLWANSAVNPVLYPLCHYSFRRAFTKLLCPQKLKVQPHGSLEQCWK

Turning to `C[C@@H]1CCCN1CCCOc1ccc(C(=O)CN2CCN(C(=O)c3ccc(Cl)cc3)CC2)cc1` [Example 100, 2-[4-(4-Chloro-benzoyl)-piperazin-1-yl]-1-{4-[3-((R)-2-methyl-pyrrolidin-1-yl)-propoxy]-phenyl}-ethanone], the melting point (in general, the temperature of the solid-liquid transition) fell in the range of 233 to 236 °C. Further, in series [1], the Ki (in general, a dissociation constant, usually derived from enzyme kinetics or from competition with a known ligand) is 0.1 to 100 nM. This compound also showed an inhibition constant Ki in series [2] of 0.1 to 100 nM.

As for `C[C@@H]1CCCN1CCCOc1ccc(C(=O)CN2CCN(S(=O)(=O)c3ccccc3)CC2)cc1` [Example 69, 2-(4-Benzenesulfonyl-piperazin-1-yl)-1-{4-[3-((R)-2-methyl-pyrrolidin-1-yl)-propoxy]-phenyl}-ethanone], the melting point was 124 to 135 °C. The inhibitory constant (Ki) in series [1] is 0.1 to 100 nM. Besides, in series [2], the Ki lay within 0.1 to 100 nM.

Take `Cc1cc(C(=O)CN2CCN(C(=O)C3CCCCC3)CC2)ccc1OCCCN1CCC[C@H]1C` [Example 148, 2-(4-Cyclohexanecarbonyl-piperazin-1-yl)-1-{3-methyl-4-[3-((R)-2-methyl-pyrrolidin-1-yl)-propoxy]-phenyl}-ethanone]: the melting point was 161 to 166.5 °C. Besides, in series [1], the inhibition constant Ki fell in the range of 0.1 to 100 nM. In series [2], this compound showed an inhibition constant (Ki) of 0.1 to 100 nM.

For the compound `C[C@@H]1CCCN1CCCOc1ccc(C(=O)CN2CCCC(C)(C)C2)cc1` [Example 55, 2-(3,3-Dimethyl-piperidin-1-yl)-1-{4-[3-((R)-2-methyl-pyrrolidin-1-yl)-propoxy]-phenyl}-ethanone], the melting point lay within 108 to 120 °C. For the same compound, in series [1], the inhibitory constant (Ki) was in the range of 0.1 to 100 nM. For the same compound, in series [2], the Ki lay within 0.1 to 100 nM.

On to `C[C@@H]1CCCN1CCCOc1ccc(C(=O)CN2CCN(c3ccccc3)CC2)cc1` [Example 91, 1-{4-[3-((R)-2-Methyl-pyrrolidin-1-yl)-propoxy]-phenyl}-2-(4-phenyl-piperazin-1-yl)-ethanone], for which the melting point is 145 to 150 °C. In addition, in series [1], the Ki is 0.1 to 100 nM. In series [2], this compound had a Ki of 0.1 to 100 nM.

`C[C@@H]1CCCN1CCCOc1ccc(C(=O)CN2CCC(F)(F)CC2)cc1F` [Example 141, 2-(4,4-Difluoro-piperidin-1-yl)-1-{3-fluoro-4-[3-((R)-2-methyl-pyrrolidin-1-yl)-propoxy]-phenyl}-ethanone] showed a melting point of 220 °C. In series [1], the Ki lay within 101 to 500 nM. In series [2], this compound displayed a Ki of 0.1 to 100 nM.

In turn, `C[C@@H]1CCCN1CCCOc1ccc(C(=O)CN2CCN(C(=O)c3ccc(Cl)c(Cl)c3)CC2)cc1` [Example 129, 2-[4-(3,4-Dichloro-benzoyl)-piperazin-1-yl]-1-{4-[3-((R)-2-methyl-pyrrolidin-1-yl)-propoxy]-phenyl}-ethanone] displayed a melting point of 88 to 90.5 °C. In addition, the Ki in series [1] was 0.1 to 100 nM. The compound further displayed a Ki in series [2] of 0.1 to 100 nM.

As to `CC1(C)CCCN1CCCOc1ccc(C(=O)CN2CCOCC2)cc1` [Example 88, 1-{4-[3-(2,2-Dimethyl-pyrrolidin-1-yl)-propoxy]-phenyl}-2-morpholin-4-yl-ethanone], the melting point fell in the range of 117 to 120 °C. In addition, the Ki in series [1] was > 1000 nM. The Ki in series [2] was > 1000 nM.

Consider `Cc1cc(C(=O)CN2CCN(c3ncccn3)CC2)ccc1OCCCN1CCC[C@H]1C` [Example 130, 1-{3-Methyl-4-[3-((R)-2-methyl-pyrrolidin-1-yl)-propoxy]-phenyl}-2-(4-pyrimidin-2-yl-piperazin-1-yl)-ethanone], for which the melting point was 231.5 to 235 °C. Also, in series [1], the Ki lay in the range of 0.1 to 100 nM. The compound also registered a Ki in series [2] of 0.1 to 100 nM.

With `CC(=O)N1CCN(CC(=O)c2ccc(OCCCN3CCC[C@H]3C)c(Cl)c2)CC1` [Example 135, 2-(4-Acetyl-piperazin-1-yl)-1-{3-chloro-4-[3-((R)-2-methyl-pyrrolidin-1-yl)-propoxy]-phenyl}-ethanone], the melting point fell in the range of 113 to 128 °C. Moreover, the Ki in series [1] was in the range of 0.1 to 100 nM. Also, the Ki in series [2] lay within 0.1 to 100 nM.

For the compound `C[C@@H]1CCCN1CCCOc1ccc(C(=O)CN2CCN(c3ccc(C(F)(F)F)cc3)CC2)cc1` [Example 105, 1-{4-[3-((R)-2-Methyl-pyrrolidin-1-yl)-propoxy]-phenyl}-2-[4-(4-trifluoromethyl-phenyl)-piperazin-1-yl]-ethanone], the melting point lay in the range of 230 to 233 °C. For the same compound, in series [1], the Ki was 0.1 to 100 nM. Besides, the Ki in series [2] lay in the range of 0.1 to 100 nM.

On to `C[C@@H]1CCCN1CCCOc1ccc(C(=O)CN2CCN(C(=O)C3CCCO3)CC2)cc1` (stereo partly drawn) [Example 83, 1-{4-[3-((R)-2-Methyl-pyrrolidin-1-yl)-propoxy]-phenyl}-2-[4-(tetrahydro-furan-2-carbonyl)-piperazin-1-yl]-ethanone], for which the melting point fell in the range of 185 to 190 °C. The Ki in series [1] lay in the range of 0.1 to 100 nM. The compound further had an inhibitory constant (Ki) in series [2] of 0.1 to 100 nM.

For `C[C@@H]1CCCN1CCCOc1ccc(C(=O)CN2CCN(C(=O)c3ccccc3)CC2)cc1F` [Example 120, 2-(4-Benzoyl-piperazin-1-yl)-1-{3-fluoro-4-[3-((R)-2-methyl-pyrrolidin-1-yl)-propoxy]-phenyl}-ethanone], the melting point worked out at 96 °C. In series [1], the Ki is 0.1 to 100 nM. In series [2], this compound had an inhibition constant (Ki) of 0.1 to 100 nM.

On to `C[C@@H]1CCCN1CCCOc1ccc(C(=O)CN2CCN(c3ccccn3)CC2)cc1` [Example 116, 1-{4-[3-((R)-2-Methyl-pyrrolidin-1-yl)-propoxy]-phenyl}-2-(4-pyridin-2-yl-piperazin-1-yl)-ethanone], for which the melting point fell in the range of 239 to 242 °C. The Ki in series [1] lay in the range of 0.1 to 100 nM. For the same compound, in series [2], the Ki fell in the range of 0.1 to 100 nM.

In turn, `C[C@@H]1CCCN1CCCOc1ccc(C(=O)CN2CCN(C(=O)OCc3ccccc3)CC2)cc1` [Example 138, 4-(2-{4-[3-((R)-2-Methyl-pyrrolidin-1-yl)-propoxy]-phenyl}-2-oxo-ethyl)-piperazine-1-carboxylic acid benzyl ester] displayed a melting point of 183 to 188 °C. Besides, the Ki in series [1] lay in the range of 0.1 to 100 nM. Besides, the Ki in series [2] was in the range of 0.1 to 100 nM.

As for `C[C@@H]1CCCN1CCCOc1ccc(C(=O)CN2CCN(S(C)(=O)=O)CC2)cc1F` [Example 122, 1-{3-Fluoro-4-[3-((R)-2-methyl-pyrrolidin-1-yl)-propoxy]-phenyl}-2-(4-methanesulfonyl-piperazin-1-yl)-ethanone], the melting point worked out at 86 °C. In series [1], the Ki fell in the range of 0.1 to 100 nM. This compound also displayed a Ki in series [2] of 0.1 to 100 nM.

In turn, `COC(=O)N1CCN(CC(=O)c2ccc(OCCCN3CCC[C@H]3C)c(Cl)c2)CC1` [Example 132, 4-(2-{3-Chloro-4-[3-((R)-2-methyl-pyrrolidin-1-yl)-propoxy]-phenyl}-2-oxo-ethyl)-piperazine-1-carboxylic acid methyl ester] showed a melting point of 122 to 124 °C. Moreover, in series [1], the Ki was in the range of 101 to 500 nM. In series [2], this compound yielded an inhibition constant Ki of 0.1 to 100 nM.

As for `CS(=O)(=O)N1CCN(CCCOc2ccc(C(=O)CN3CCOCC3)cc2)CC1` [Example 59, 1-{4-[3-(4-Methanesulfonyl-piperazin-1-yl)-propoxy]-phenyl}-2-morpholin-4-yl-ethanone], the melting point lay in the range of 246 to 248 °C. For the same compound, the inhibition constant Ki in series [1] is > 1000 nM. For the same compound, the Ki in series [2] is > 1000 nM.

With `C[C@@H]1CCCN1CCCOc1ccc(C(=O)CN2CCN(C(=O)c3ccccc3-c3ccccc3)CC2)cc1` [Example 152, 2-[4-(Biphenyl-2-carbonyl)-piperazin-1-yl]-1-{4-[3-((R)-2-methyl-pyrrolidin-1-yl)-propoxy]-phenyl}-ethanone], the melting point was 117 to 119 °C. Also, the Ki in series [1] lay in the range of 0.1 to 100 nM. The compound also displayed a Ki in series [2] of 0.1 to 100 nM.

Compound `C[C@@H]1CCCN1CCCOc1ccc(C(=O)CN2CCN(C(=O)c3ccc(F)cc3)CC2)cc1` [Example 101, 2-[4-(4-Fluoro-benzoyl)-piperazin-1-yl]-1-{4-[3-((R)-2-methyl-pyrrolidin-1-yl)-propoxy]-phenyl}-ethanone] registered a melting point of 225 to 229 °C. The Ki in series [1] was 0.1 to 100 nM. For the same compound, the Ki in series [2] was in the range of 0.1 to 100 nM.

In the case of `C[C@@H]1CCCN1CCCOc1ccc(C(=O)CN2CCN(C(=O)c3ccccc3)CC2)cc1Cl` [Example 113, 2-(4-Benzoyl-piperazin-1-yl)-1-{3-chloro-4-[3-((R)-2-methyl-pyrrolidin-1-yl)-propoxy]-phenyl}-ethanone], the melting point is 130 to 137 °C. Also, the Ki in series [1] was 0.1 to 100 nM. The same compound yielded a Ki in series [2] of 0.1 to 100 nM.

In turn, `CC(=O)N1CCN(CC(=O)c2cc(C)c(OCCCN3CCC[C@H]3C)c(C)c2)CC1` [Example 97, 2-(4-Acetyl-piperazin-1-yl)-1-{3,5-dimethyl-4-[3-((R)-2-methyl-pyrrolidin-1-yl)-propoxy]-phenyl}-ethanone] displayed a melting point of 118 to 119 °C. The Ki in series [1] lay within 501 to 1000 nM. For the same compound, the Ki in series [2] fell in the range of 101 to 500 nM.

As to `CC(C(=O)c1ccc(OCCCN2CCCCC2)cc1)N1CCCCC1` (stereo not drawn) [Example 19, 2-Piperidin-1-yl-1-[4-(3-piperidin-1-yl-propoxy)-phenyl]-propan-1-one], the melting point is > 240 °C. The compound further had an inhibitory constant (Ki) in series [2] of 0.1 to 100 nM.

`O=C(CN1CCOCC1)c1ccc(OCCCN2CCN3CCC[C@H]3C2)cc1` [Example 51, 1-{4-[(S)-3-(Hexahydro-pyrrolo[1,2-a]pyrazin-2-yl)-propoxy)-phenyl}-2-morpholin-4-yl-ethanone]: the melting point stood at 238 °C. Moreover, the inhibition constant Ki in series [2] is > 1000 nM.

With `CC(=O)N1CCN(CCCOc2ccc(C(=O)C(C)N3CCOCC3)cc2)CC1` (stereo not drawn) [Example 50, 1-{4-[3-(4-Acetyl-piperazin-1-yl)-propoxy]-phenyl}-2-morpholin-4-yl-propan-1-one], the melting point was found to be 240 °C. The Ki in series [2] was > 1000 nM.
